Assay results: article PMC3486884 (PLoS Pathogens, 2012)
Read-outs that look alike come from different tables or passages of the source.

Experiments:
CVA21 [1] = assay: microbe, parasite or virus in culture; settings: Coxsackievirus, CVA21, HeLa, read-out: IC50 (CVA21)
HRV14 [2] = settings: n=2
HRV1A [3] = settings: for relative infection: n=2
HRV1A [4] = assay: microbe, parasite or virus in culture; settings: Human rhinovirus sp.; for activity at 0.03 µM / activity at 0.1 µM / activity at 0.31 µM / activity at 0.93 µM / activity at 2.78 µM / activity at 8.33 µM / activity at 25 µM: M-HeLa, 7 h; for activity at 0.03 µM: read-out: HRV1A infection (dsRNA), 0.03 µM; for activity at 0.1 µM: read-out: HRV1A infection (dsRNA), 0.10 µM; for activity at 0.31 µM: read-out: HRV1A infection (dsRNA), 0.31 µM; for activity at 0.93 µM: read-out: HRV1A infection (dsRNA), 0.93 µM; for activity at 2.78 µM: read-out: HRV1A infection (dsRNA), 2.78 µM; for activity at 8.33 µM: read-out: HRV1A infection (dsRNA), 8.33 µM; for activity at 25 µM: read-out: HRV1A infection (dsRNA), 25.00 µM
CVA21 [5] = settings: n=2
CVB3 = settings: n=2
[6] = test system: influenza virus (strain A/Puerto Rico/8/34/H1N1 depicted PR8); assay: microbe, parasite or virus in culture; settings: unidentified influenza virus, A549, read-out: IC50 (PR8)
CVB4 = settings: n=2
HRV2 [7] = assay: microbe, parasite or virus in culture; settings: Human rhinovirus sp., HRV2, HeLa, read-out: IC50 (HRV2)
HRV2 [8] = settings: n=2
HRV16 [9] = settings: n=2
HRV14 [10] = assay: microbe, parasite or virus in culture; settings: Human rhinovirus sp., HRV14, HeLa, read-out: IC50 (HRV14)
HRV16 [11] = assay: microbe, parasite or virus in culture; settings: Human rhinovirus sp., HRV16, HeLa, read-out: IC50 (HRV16)

O=C(Nc1ccc([N+](=O)[O-])cc1Cl)c1cc(Cl)ccc1OCCOc1ccccc1 [TVB-1329]
IC50 (CVA21 [1]): ~26.6 µM
relative infection (HRV14 [2]; 0.1 µM): 0.86
relative infection (HRV14 [2]; 0.3 µM): 0.87
relative infection (HRV14 [2]; 0.9 µM): 0.97
relative infection (HRV14 [2]; 2.8 µM): 0.86
relative infection (HRV14 [2]; 8.3 µM): 0.58
relative infection (HRV14 [2]; 25.0 µM): 0.10
antiviral activity against HRV1A (structure-activity study, in words) (HRV1A [3]): did not diminish the antiviral efficacy compared to niclosamide
relative infection (HRV1A [3]; 0.1 µM): 1.00
relative infection (HRV1A [3]; 0.3 µM): 1.04
relative infection (HRV1A [3]; 0.9 µM): 1.10
relative infection (HRV1A [3]; 2.8 µM): 1.02
relative infection (HRV1A [3]; 8.3 µM): 0.59
relative infection (HRV1A [3]; 25.0 µM): 0.05
IC50 (HRV1A [4]; HeLa, read-out: IC50 (HRV1A)): 9.34 µM
activity at 0.03 µM (HRV1A [4]): 112%
activity at 0.1 µM (HRV1A [4]): 112%
activity at 0.31 µM (HRV1A [4]): 119%
activity at 0.93 µM (HRV1A [4]): 123%
activity at 2.78 µM (HRV1A [4]): 111%
activity at 8.33 µM (HRV1A [4]): 47%
activity at 25 µM (HRV1A [4]): 6%
relative infection (CVA21 [5]; 0.1 µM): 0.86
relative infection (CVA21 [5]; 0.3 µM): 0.97
relative infection (CVA21 [5]; 0.9 µM): 1.08
relative infection (CVA21 [5]; 2.8 µM): 1.13
relative infection (CVA21 [5]; 8.3 µM): 1.29
relative infection (CVA21 [5]; 25.0 µM): 0.68
relative infection (CVB3; 0.1 µM): 0.97
relative infection (CVB3; 0.3 µM): 1.06
relative infection (CVB3; 0.9 µM): 1.19
relative infection (CVB3; 2.8 µM): 1.25
relative infection (CVB3; 8.3 µM): 1.07
relative infection (CVB3; 25.0 µM): 1.01
IC50 [6]: 10.3 µM
relative infection (CVB4; 0.1 µM): 1.12
relative infection (CVB4; 0.3 µM): 1.28
relative infection (CVB4; 0.9 µM): 1.51
relative infection (CVB4; 2.8 µM): 1.62
relative infection (CVB4; 8.3 µM): 1.33
relative infection (CVB4; 25.0 µM): 0.46
IC50 (HRV2 [7]): 5.07 µM
relative infection (HRV2 [8]; 0.1 µM): 1.03
relative infection (HRV2 [8]; 0.3 µM): 1.10
relative infection (HRV2 [8]; 0.9 µM): 0.98
relative infection (HRV2 [8]; 2.8 µM): 0.68
relative infection (HRV2 [8]; 8.3 µM): 0.36
relative infection (HRV2 [8]; 25.0 µM): 0.02
relative infection (HRV16 [9]; 0.1 µM): 0.84
relative infection (HRV16 [9]; 0.3 µM): 0.98
relative infection (HRV16 [9]; 0.9 µM): 1.04
relative infection (HRV16 [9]; 2.8 µM): 1.26
relative infection (HRV16 [9]; 8.3 µM): 0.99
relative infection (HRV16 [9]; 25.0 µM): 0.14
IC50 (HRV14 [10]): 9.3 µM

CS(=O)(=O)c1ccc(NC(=O)c2cc(Cl)ccc2O)c(Cl)c1 [TVB-1338]
relative infection (HRV14 [2]; 0.1 µM): 1.07
relative infection (HRV14 [2]; 0.3 µM): 1.12
relative infection (HRV14 [2]; 0.9 µM): 1.20
relative infection (HRV14 [2]; 2.8 µM): 1.17
relative infection (HRV14 [2]; 8.3 µM): 1.13
relative infection (HRV14 [2]; 25.0 µM): 0.62
antiviral activity against HRV1A (structure-activity study, in words) (HRV1A [3]): eliminated antiviral activity
relative infection (HRV1A [3]; 0.1 µM): 1.02
relative infection (HRV1A [3]; 0.3 µM): 0.96
relative infection (HRV1A [3]; 0.9 µM): 1.07
relative infection (HRV1A [3]; 2.8 µM): 1.12
relative infection (HRV1A [3]; 8.3 µM): 1.11
relative infection (HRV1A [3]; 25.0 µM): 0.95
activity at 0.03 µM (HRV1A [4]): 123%
activity at 0.1 µM (HRV1A [4]): 106%
activity at 0.31 µM (HRV1A [4]): 109%
activity at 0.93 µM (HRV1A [4]): 105%
activity at 2.78 µM (HRV1A [4]): 106%
activity at 8.33 µM (HRV1A [4]): 111%
activity at 25 µM (HRV1A [4]): 112%
relative infection (CVA21 [5]; 0.1 µM): 1.02
relative infection (CVA21 [5]; 0.3 µM): 1.05
relative infection (CVA21 [5]; 0.9 µM): 1.03
relative infection (CVA21 [5]; 2.8 µM): 1.05
relative infection (CVA21 [5]; 8.3 µM): 1.06
relative infection (CVA21 [5]; 25.0 µM): 0.81
relative infection (CVB3; 0.1 µM): 0.97
relative infection (CVB3; 0.3 µM): 1.10
relative infection (CVB3; 0.9 µM): 1.09
relative infection (CVB3; 2.8 µM): 1.05
relative infection (CVB3; 8.3 µM): 0.94
relative infection (CVB3; 25.0 µM): 0.94
IC50 (HRV16 [11]): ~26.9 µM
IC50 [6]: 42.9 µM
relative infection (CVB4; 0.1 µM): 1.00
relative infection (CVB4; 0.3 µM): 1.02
relative infection (CVB4; 0.9 µM): 1.06
relative infection (CVB4; 2.8 µM): 1.15
relative infection (CVB4; 8.3 µM): 1.02
relative infection (CVB4; 25.0 µM): 0.51
relative infection (HRV2 [8]; 0.1 µM): 1.05
relative infection (HRV2 [8]; 0.3 µM): 1.11
relative infection (HRV2 [8]; 0.9 µM): 1.12
relative infection (HRV2 [8]; 2.8 µM): 1.13
relative infection (HRV2 [8]; 8.3 µM): 1.12
relative infection (HRV2 [8]; 25.0 µM): 0.76
relative infection (HRV16 [9]; 0.1 µM): 1.09
relative infection (HRV16 [9]; 0.3 µM): 1.11
relative infection (HRV16 [9]; 0.9 µM): 1.15
relative infection (HRV16 [9]; 2.8 µM): 1.13
relative infection (HRV16 [9]; 8.3 µM): 1.02
relative infection (HRV16 [9]; 25.0 µM): 0.67
